Tests used:
S line of rigid ryegrass = test: Dose response study of plant injury, S line; type: in vivo, Lolium rigidum; settings: visual injury 4 WAT, 1× = 1.12 kg ai ha^-1
Protocol: A dose response study is conducted on the R and S lines of rigid ryegrass. The rates of glyphosate applied varied from 0.125×, 0.25×, 0.5×, 1×, 2×, 4×, 6×, 8×, 10×, to 12×. The sprayed solutions and application procedures are similar to those described previously. Plants are evaluated for visual injury at 4 WAT. Data (4 WAT) from two experiments with 8 replications of each treatment are analyzed by non-linear regression and fitted to a log-logistic model:
[formula] where y is predictive of plant injury (% of control), X50=dose required to obtain 50% injury and b is the slope at X50.

[1] = system: EPSPS from R and S biotypes of rigid ryegrass; test: EPSPS activity assay in the presence of glyphosate; type: biochemical, Lolium rigidum; settings: glyphosate from 5 to 5000 µM; crown tissue extract; R versus S biotype
Protocol: Extraction methods for EPSPS are modified from methods discussed in Boerboom et al., Weed Sci. 38:463-467 (1990). Crown tissue (0.5 gram fresh weight per sample) is harvested from California rigid ryegrass plants, frozen in liquid nitrogen, and grounded in a cold mortar with 150 mg polyvinylpolypyrrolidone (PVPP). The fine powder tissue is ground further in 0.5 ml extraction buffer (pH 7.5) containing 10 mM Trizma HC1, 1 mM ethylenediaminetetraacetic acid (EDTA), 10% (v/v) glycerol, 1 mg ml^−1 bovine serum albumin (BSA), 10 mM ascorbate, 1 mM benzamidine (BAM), and 5 mM dithiothreitol (DTT). The mixture is centrifuged at 15,000×g for 10 min, and the supernatant is desalted in 1.0 ml Sephadex G-50 column (^7 MICRO-SPINS® Shephadex G-50 column, Life Science Products Inc., Frederick, Colo.) and further centrifuged at 1,000×g for 3 min. Total protein in the supernatant is quantified spectrometrically at 595 nm followed the method discussed in Bradford, Anal. Biochem 72:248-254 (1976).
Assay of EPSPS activity is modified from methods discussed in Westwood and Weller, Weed Sci. 45:2-11 (1997). […]
Data from duplicate experiments with three replications of each treatment are analyzed by non-linear regression and fitted to a log-logistic model, […]

[2] = system: F1 hybrid of perennial ryegrass and glyphosate resistant rigid ryegrass; test: Glyphosate sensitivity of F1 hybrid population; type: in vivo, Lolium perenne x Lolium rigidum; settings: 50 plants, 3 weeks after treatment
Protocol: The R biotype of California rigid ryegrass, which survived 8× glyphosate and perennial ryegrass, which died from 0.25× of glyphosate, are grown individually in 950-ml pots with professional planting mix media as discussed above. Plants are maintained in greenhouse with supplemental light, watered daily, and fertilized weekly with NPK water soluble fertilizer (20-20-20). At the mature vegetative stage, perennial ryegrass plants are vernalized in the growth chamber with the temperature 4 ±1 C, 8 h day and 16 h night. After 4 weeks vernalization, the plants are removed and maintained in greenhouse until flowering.
Seed heads of perennial ryegrass are designated to be pollinated by California rigid ryegrass also vice-verse because both of the species are allogamus plants. Both are known to be self-incompatible. After the emergence of seed heads and before the pollen opened, one plant from each species is isolated in one room of greenhouse. To provide conditions for cross-pollination, perennial ryegrass and rigid ryegrass plants are placed next to each other. During the pollination period, plants are maintained regularly as mentioned previously until the seed reached the maturity. The successful hybridization is indicated with the full development of mature seeds which had brown color. Seeds are harvested from both perennial and rigid ryegrass. Seeds from perennial ryegrass hybrids are used for further evaluation.
Seeds of the F1 hybrid harvested from perennial ryegrass are grown and maintained as individual plants in the greenhouse as described previously. At the tillering stage, 50 plants for each of glyphosate rates (0.25, 0.5, 1.0, 1.5, 2.0, 4.0, and 8×, where x=1.12 kg ha^−1) are evaluated for sensitivity or resistance. Glyphosate is delivered in 187 L ha^−1 spray solutions with 172.5 kPa pressure using a flat fan nozzle. The dead or survivors in each treatment are counted 3 weeks after treatment and the plants with the highest level of resistance are further maintained and intercrossed to generate F2.

[3] = system: Transformed Agrobacterium (glyphosate-resistant rigid ryegrass EPSPS); test: Growth in M-9 media with glyphosate, transformed with resistant EPSPS; type: cell-based, Agrobacterium tumefaciens; settings: 48 hours
Protocol: The level of glyphosate resistance is assayed from resistant rigid ryegrass EPSPS-expressing Agrobacterium that are transformed with a DNA construct encoding the resistant EPSPS enzyme (SEQ. ID. NO. 16).
An EPSPS gene (SEQ. ID. NO. 15) is obtained from glyphosate resistant rigid ryegrass. The EPSPS gene is ligated with the binary vector pFGC5941, a 11406 bp construct with kanamycin resistant gene, BAR gene as a selectable marker, and 35S Promoter. The ligation is cloned in pGEM vector and grown in LB broth. The plasmid from cloned pGEM is confirmed for the inserted EPSPS gene by PCR.
The confirmed plasmid is transformed into Agrobacterium tumefaciens by “freeze thaw technique” using liquid nitrogen. The transformed Agrobacterium is grown in LB plated and maintained 28° C. for 72 h. Some colonies are grown in LB broth for 24 h and tested for the inserted EPSPS gene by PCR. The confirmed Agrobacterium is grown in 50 mL LB broth for 24 h. The Agrobacterium is centrifuged at 5000×g for 10 min, and the pellets are diluted with 2 mL 1.0 M CaCl2. At the same time, a wild-type Agrobacterium is also grown and extracted similar to the transformed Agrobacterium. The Agrobacterium solutions (10 μL) are grown in 50 mL media containing 1×M-9 salt media (SIGMA), 20 mM glucose, 2 mM MgSO4, and glyphosate at 0, 0.25, 0.5, 0.75, 1.0, 1.5, and 2 mM.
The growth (indicated by Optical Density 600 nm) is measured after 48 hours.

[4] = Glyphosate 0.25 kg ha^-1 as headed
[5] = Glyphosate 0.50 kg ha^-1 as headed
[6] = Glyphosate 1 kg ha^-1 as headed
[7] = Glyphosate 4 kg ha^-1 as headed
[8] = Glyphosate 8 kg ha^-1 as headed

## O=C(O)CNCP(=O)(O)O [glyphosate, N-(phosphonomethyl) glycine]
S line of rigid ryegrass
  glyphosate rate for 50% injury: 0.1 ×
[1]
  inhibition of EPSPS activity: significantly inhibited more in S than in R
[2]; [4]
  Severely injured and dead: 0%
  Survivors: 100%
[2]; [5]
  Severely injured and dead: 6%
  Survivors: 94%
[2]; [6]
  Severely injured and dead: 10%
  Survivors: 90%
[2]; Glyphosate 2 kg ha^-1 as headed (2× in text)
  Survivors: 90%
[2]; Glyphosate 2 kg ha^-1 as headed (2× in text), listed as Glyphosate
  Survivors: 90**) Percent
[2]; Glyphosate 2 kg ha^-1 as headed
  Severely injured and dead: 10%
[2]; [7]
  Severely injured and dead: 100%
  Survivors: 0%
[2]; [8]
  Severely injured and dead: 100%
  Survivors: 0%
[3]; glyphosate 0.25 mM
  Growth, OD 600 nm: 0.632
  Growth, Percent: 98%
[3]; glyphosate 0.50 mM
  Growth, OD 600 nm: 0.185
  Growth, Percent: 29%
[3]; glyphosate 0.75 mM
  Growth, OD 600 nm: 0.097
  Growth, Percent: 15%
[3]; glyphosate 1.00 mM
  Growth, OD 600 nm: 0.025
  Growth, Percent: 4%
[3]; glyphosate 1.50 mM
  Growth, OD 600 nm: 0.024
  Growth, Percent: 4%
[3]; glyphosate 2.00 mM
  Growth, OD 600 nm: 0.02
  Growth, Percent: 3%

Reference: patent US7906709B2, “Methods for breeding glyphosate resistant plants and compositions thereof” (priority 2006, dated 2011)
